Reference: ChEMBL document CHEMBL5465560, “Selectivity Literature for EUbOPEN Chemogenomic Library” (2024)

What was measured:
[1] = biological target: Kappa-type opioid receptor (Homo sapiens, UniProt P41145); assay: Selectivity interaction (Opiate Kappa receptor assay, human recombinant ) EUB0000877a OPRK1
[2] = biological target: STE20/SPS1-related proline-alanine-rich protein kinase (Homo sapiens) (UniProt Q9UEW8); assay: Selectivity interaction (ActivX KiNativ screen (kinase selectivity in THP-1 cell lysates)) EUB0000639a STK39; format: subcellular; conditions: lysate
[3] = biological target: 5'-AMP-activated protein kinase catalytic subunit alpha-1 (Homo sapiens, UniProt Q13131); assay: Selectivity interaction (ActivX KiNativ screen (kinase selectivity in THP-1 cell lysates)) EUB0000639a PRKAA1; format: subcellular; conditions: lysate, at 1 µM
[4] = biological target: DNA-dependent protein kinase catalytic subunit (Homo sapiens) (UniProt P78527); assay: Selectivity interaction (ActivX KiNativ screen (kinase selectivity in THP-1 cell lysates)) EUB0000639a PRKDC; format: subcellular; conditions: lysate, at 0.04 µM
[5] = biological target: Cyclin-dependent kinase 16 (Homo sapiens) (UniProt Q00536); conditions: at 10 µM
[6] = test system: Tyrosine-protein kinase ABL1 (Homo sapiens), P00519 [F317I]; assay: Selectivity interaction (Ambit KINOMEscan and KiNATiv profiling in Jurkat cells) EUB0000090b ABL1; format: cell-based; conditions: at 1 µM
[7] = biological target: Receptor-type tyrosine-protein kinase FLT3 (Homo sapiens) (UniProt P36888); assay: Selectivity interaction (Ambit KINOMEscan and KiNATiv profiling in Jurkat cells) EUB0000090b FLT3; format: cell-based; conditions: at 1 µM
[8] = biological target: T1, Mitogen-activated protein kinase kinase kinase kinase 2 (Homo sapiens) (UniProt Q12851); conditions: at 10 µM
T1 sequence (whole entry): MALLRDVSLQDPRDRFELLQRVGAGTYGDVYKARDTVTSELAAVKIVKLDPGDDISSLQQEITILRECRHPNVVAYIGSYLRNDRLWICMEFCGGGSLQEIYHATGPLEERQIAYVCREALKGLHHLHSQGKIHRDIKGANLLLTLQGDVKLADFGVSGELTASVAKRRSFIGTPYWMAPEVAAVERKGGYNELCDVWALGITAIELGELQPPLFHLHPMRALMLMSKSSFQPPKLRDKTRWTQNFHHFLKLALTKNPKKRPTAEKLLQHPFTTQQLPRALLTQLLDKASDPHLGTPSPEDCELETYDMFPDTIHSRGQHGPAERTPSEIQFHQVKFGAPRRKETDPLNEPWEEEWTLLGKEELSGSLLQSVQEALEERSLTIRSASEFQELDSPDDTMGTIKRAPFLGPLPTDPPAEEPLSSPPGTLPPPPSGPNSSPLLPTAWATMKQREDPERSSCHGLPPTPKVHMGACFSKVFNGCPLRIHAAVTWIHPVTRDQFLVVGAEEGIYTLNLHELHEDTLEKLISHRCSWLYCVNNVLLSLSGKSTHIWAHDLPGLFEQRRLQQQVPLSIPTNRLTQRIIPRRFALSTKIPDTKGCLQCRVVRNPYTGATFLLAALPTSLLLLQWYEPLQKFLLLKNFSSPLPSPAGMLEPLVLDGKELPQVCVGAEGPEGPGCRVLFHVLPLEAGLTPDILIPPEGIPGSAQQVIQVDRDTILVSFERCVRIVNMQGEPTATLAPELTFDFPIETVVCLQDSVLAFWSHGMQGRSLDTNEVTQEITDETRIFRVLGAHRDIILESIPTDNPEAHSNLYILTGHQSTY

[9] = biological target: Mitogen-activated protein kinase 3 (Homo sapiens, UniProt P27361); assay: Selectivity interaction (ActivX KiNativ screen (ex vivo kinase selectivity in human PBMCs)) EUB0001619a MAPK3; format: cell-based; conditions: PBMC, at 1 µM
[10] = biological target: T2, Serine/threonine-protein kinase ULK2 (Homo sapiens) (UniProt Q8IYT8); assay: Selectivity interaction (KinomeScan (DiscoverX)) EUB0001619a ULK2; conditions: at 1 µM
T2 sequence (whole entry): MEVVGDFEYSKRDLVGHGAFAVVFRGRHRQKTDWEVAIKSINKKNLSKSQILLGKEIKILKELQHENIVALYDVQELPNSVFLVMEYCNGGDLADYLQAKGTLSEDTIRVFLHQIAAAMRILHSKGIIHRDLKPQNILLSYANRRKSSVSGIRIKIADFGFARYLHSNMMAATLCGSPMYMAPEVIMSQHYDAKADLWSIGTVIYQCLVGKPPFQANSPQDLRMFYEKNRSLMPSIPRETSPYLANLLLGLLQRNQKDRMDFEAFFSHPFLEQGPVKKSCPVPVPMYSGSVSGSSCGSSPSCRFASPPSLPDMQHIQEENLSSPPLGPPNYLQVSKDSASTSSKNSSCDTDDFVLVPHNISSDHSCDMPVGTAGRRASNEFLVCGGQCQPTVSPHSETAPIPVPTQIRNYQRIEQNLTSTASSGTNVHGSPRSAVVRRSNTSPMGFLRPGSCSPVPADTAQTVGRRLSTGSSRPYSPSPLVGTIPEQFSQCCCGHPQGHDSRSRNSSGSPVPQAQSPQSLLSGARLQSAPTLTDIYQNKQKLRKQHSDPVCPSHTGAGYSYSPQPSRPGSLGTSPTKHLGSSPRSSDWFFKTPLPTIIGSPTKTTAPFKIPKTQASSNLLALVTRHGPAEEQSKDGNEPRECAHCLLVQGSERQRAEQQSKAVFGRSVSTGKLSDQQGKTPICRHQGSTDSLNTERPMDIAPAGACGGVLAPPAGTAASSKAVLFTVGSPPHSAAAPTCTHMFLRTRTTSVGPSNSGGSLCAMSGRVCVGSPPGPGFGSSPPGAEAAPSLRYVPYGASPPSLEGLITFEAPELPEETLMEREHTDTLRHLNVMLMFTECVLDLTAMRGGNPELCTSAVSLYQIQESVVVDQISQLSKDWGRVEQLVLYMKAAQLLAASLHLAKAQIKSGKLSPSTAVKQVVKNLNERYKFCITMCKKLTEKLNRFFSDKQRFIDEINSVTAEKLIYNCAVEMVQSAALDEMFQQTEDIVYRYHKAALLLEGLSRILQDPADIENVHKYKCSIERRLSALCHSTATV

[11] = biological target: AP2-associated protein kinase 1 (Homo sapiens, UniProt Q2M2I8); assay: Selectivity interaction (KinomeScan (DiscoverX)) EUB0001868a AAK1; conditions: at 1 µM

Sequence of DNA-dependent protein kinase catalytic subunit (Homo sapiens) (P78527 whole entry): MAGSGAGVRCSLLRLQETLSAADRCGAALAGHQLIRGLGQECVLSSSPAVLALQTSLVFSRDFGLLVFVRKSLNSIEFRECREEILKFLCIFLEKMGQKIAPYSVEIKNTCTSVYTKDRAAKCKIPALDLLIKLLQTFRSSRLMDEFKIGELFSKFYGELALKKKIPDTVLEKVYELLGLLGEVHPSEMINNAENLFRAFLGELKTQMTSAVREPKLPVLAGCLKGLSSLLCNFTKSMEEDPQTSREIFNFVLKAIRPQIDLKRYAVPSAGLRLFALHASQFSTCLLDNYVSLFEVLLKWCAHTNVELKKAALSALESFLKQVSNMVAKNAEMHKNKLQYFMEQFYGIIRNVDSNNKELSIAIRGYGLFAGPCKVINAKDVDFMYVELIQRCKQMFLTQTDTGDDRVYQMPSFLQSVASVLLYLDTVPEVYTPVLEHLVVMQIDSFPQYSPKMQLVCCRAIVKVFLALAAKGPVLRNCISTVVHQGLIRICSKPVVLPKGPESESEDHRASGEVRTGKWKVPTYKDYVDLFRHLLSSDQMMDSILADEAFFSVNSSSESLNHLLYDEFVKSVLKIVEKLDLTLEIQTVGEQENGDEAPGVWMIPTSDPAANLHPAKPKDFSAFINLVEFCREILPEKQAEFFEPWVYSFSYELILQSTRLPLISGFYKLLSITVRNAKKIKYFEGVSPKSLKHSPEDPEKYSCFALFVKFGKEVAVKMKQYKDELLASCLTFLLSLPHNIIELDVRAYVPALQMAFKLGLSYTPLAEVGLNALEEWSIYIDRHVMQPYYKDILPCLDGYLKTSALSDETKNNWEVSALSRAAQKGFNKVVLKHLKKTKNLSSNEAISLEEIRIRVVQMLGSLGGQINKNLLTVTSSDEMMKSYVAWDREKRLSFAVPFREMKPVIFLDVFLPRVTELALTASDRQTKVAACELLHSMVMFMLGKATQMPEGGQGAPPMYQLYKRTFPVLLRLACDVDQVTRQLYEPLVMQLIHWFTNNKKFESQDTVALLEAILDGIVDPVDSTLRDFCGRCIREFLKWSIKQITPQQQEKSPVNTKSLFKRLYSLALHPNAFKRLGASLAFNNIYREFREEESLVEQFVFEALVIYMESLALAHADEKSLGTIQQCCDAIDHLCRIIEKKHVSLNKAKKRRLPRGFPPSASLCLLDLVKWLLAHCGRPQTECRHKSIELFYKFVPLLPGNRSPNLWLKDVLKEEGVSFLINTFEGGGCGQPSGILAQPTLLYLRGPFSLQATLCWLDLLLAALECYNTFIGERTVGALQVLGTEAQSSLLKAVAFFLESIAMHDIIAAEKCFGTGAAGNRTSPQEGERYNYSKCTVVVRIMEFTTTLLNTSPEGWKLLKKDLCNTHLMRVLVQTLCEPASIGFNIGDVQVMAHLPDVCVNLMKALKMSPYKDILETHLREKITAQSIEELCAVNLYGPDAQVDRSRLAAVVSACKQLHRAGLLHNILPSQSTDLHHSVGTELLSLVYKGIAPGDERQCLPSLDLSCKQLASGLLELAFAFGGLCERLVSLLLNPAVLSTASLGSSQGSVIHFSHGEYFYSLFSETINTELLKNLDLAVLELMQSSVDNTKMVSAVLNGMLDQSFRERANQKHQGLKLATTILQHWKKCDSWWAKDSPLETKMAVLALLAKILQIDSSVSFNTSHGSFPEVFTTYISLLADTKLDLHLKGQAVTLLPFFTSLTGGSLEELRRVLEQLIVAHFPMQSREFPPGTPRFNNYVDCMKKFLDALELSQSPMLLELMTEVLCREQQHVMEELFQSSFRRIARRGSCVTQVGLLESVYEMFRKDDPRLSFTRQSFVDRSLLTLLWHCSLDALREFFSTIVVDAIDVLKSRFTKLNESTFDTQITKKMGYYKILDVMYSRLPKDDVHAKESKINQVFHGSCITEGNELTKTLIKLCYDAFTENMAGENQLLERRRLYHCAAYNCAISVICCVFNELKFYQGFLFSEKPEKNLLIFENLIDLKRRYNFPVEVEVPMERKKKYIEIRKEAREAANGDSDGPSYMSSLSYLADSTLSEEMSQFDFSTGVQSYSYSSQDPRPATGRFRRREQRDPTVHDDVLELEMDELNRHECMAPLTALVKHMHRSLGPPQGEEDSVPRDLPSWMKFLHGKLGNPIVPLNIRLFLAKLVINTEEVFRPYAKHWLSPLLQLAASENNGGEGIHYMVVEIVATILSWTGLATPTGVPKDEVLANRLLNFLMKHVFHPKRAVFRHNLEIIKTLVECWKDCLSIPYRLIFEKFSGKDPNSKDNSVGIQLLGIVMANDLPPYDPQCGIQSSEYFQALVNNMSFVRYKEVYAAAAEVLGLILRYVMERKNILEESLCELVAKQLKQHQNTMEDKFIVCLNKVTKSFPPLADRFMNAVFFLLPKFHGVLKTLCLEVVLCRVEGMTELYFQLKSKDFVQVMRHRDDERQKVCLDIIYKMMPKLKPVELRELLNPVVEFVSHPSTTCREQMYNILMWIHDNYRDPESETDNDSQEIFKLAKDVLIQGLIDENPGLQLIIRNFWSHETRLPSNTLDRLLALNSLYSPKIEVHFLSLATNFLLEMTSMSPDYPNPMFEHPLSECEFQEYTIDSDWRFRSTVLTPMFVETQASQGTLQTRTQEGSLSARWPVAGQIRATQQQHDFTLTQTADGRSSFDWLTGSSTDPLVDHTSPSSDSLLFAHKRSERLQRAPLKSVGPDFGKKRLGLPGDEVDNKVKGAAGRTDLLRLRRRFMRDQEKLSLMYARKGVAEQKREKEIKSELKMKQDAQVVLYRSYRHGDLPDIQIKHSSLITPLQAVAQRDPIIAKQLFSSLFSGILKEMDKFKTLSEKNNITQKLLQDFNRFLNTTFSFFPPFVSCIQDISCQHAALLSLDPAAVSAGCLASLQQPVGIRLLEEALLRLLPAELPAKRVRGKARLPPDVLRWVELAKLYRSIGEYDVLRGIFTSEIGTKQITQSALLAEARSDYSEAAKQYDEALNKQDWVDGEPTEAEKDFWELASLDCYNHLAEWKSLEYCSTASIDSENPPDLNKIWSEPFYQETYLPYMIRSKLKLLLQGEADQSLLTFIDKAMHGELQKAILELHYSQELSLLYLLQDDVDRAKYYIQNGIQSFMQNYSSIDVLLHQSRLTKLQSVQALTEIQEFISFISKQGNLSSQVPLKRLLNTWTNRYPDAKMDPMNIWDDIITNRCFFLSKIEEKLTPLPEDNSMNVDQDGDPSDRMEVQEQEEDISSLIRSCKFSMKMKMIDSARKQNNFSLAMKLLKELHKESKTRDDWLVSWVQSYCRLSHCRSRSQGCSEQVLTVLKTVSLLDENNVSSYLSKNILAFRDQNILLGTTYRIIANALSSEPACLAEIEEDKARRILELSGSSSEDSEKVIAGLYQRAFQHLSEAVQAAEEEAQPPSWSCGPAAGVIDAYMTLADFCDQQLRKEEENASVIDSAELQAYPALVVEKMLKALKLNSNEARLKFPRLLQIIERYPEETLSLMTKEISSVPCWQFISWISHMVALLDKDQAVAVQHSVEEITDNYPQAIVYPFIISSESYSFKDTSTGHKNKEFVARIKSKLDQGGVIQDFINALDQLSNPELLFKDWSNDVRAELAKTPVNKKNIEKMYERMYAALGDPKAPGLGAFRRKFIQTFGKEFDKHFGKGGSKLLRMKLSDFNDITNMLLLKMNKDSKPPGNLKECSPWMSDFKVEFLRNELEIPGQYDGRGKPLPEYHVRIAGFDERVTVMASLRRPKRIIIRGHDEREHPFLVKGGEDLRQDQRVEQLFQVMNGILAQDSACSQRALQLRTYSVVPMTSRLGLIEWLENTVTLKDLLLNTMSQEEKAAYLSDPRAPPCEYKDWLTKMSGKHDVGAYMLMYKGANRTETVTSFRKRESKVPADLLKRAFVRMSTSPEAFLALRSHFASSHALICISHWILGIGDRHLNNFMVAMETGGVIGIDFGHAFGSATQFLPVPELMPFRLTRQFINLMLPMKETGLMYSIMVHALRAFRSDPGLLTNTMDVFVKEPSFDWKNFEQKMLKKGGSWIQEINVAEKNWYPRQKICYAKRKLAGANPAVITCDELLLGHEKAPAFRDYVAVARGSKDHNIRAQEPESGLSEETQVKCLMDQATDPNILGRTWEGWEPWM
Sequence of 5'-AMP-activated protein kinase catalytic subunit alpha-1 (Q13131 whole entry, looked up): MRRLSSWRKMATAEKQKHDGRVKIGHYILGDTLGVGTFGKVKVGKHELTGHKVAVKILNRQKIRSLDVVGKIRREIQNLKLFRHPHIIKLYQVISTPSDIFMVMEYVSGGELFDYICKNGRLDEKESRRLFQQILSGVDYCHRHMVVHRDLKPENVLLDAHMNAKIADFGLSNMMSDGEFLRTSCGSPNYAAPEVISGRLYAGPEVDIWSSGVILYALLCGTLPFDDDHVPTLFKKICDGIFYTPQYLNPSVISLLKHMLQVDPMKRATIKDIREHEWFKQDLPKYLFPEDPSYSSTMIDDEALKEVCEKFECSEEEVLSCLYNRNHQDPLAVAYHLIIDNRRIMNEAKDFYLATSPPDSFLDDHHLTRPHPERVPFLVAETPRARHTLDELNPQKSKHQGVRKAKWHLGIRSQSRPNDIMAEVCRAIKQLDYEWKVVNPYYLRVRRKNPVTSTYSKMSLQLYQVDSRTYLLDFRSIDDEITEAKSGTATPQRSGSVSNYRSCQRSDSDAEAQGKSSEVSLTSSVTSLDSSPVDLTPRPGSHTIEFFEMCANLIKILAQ
Sequence of Mitogen-activated protein kinase 3 (P27361 whole entry): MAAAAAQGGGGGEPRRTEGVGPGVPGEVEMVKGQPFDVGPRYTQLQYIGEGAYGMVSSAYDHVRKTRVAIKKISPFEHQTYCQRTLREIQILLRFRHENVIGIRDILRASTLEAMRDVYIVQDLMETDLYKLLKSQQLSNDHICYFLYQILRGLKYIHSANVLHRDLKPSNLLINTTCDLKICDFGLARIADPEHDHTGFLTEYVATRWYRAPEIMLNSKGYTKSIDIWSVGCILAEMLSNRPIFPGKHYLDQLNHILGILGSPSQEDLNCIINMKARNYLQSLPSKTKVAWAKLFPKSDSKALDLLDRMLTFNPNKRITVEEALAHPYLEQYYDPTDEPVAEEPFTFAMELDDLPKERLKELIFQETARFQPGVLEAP

CCC(=O)N1CC[C@H](Nc2ncnc3c2CN(c2cnc(OC)c(C(F)(F)F)c2)CC3)C1 [LENIOLISIB]
IC50 [1]: > 30 µM

CC[C@@H]1[C@H](F)C(=O)N[C@@H]1COc1nccc2cc(C(N)=O)c(OC)cc12 [ZIMLOVISERTIB]
% of inhibition ([2]; at 0.01 µM): 3.8%
% of inhibition ([2]; at 0.04 µM): -1.3%
% of inhibition ([2]; at 0.2 µM): 2.2%
% of inhibition ([2]; at 1 µM): -9.4%
% of inhibition ([2]; at 5 µM): 1.5%
% of inhibition [3]: -4.6%
% of inhibition [4]: -0.6%

COCC(=O)NC/C=C/c1ccc2ncnc(Nc3ccc(Oc4ccc(C)nc4)c(C)c3)c2c1 [CP-724714]
% of control [5]: 74%

CN(C)C/C=C/C(=O)Nc1ccc(C(=O)N2CCCC(Nc3ncc(Cl)c(-c4c[nH]c5ccccc45)n3)C2)cc1 (stereo not given)
% of control [6]: 100%
% of control [7]: 95%

Cc1cc([C@@H](C)Nc2ccccc2C(=O)O)c2nc(N3CCOCC3)cc(=O)n2c1 [AZD-6482]
% of control [8]: 56%

N#Cc1cccc(-c2c[nH]c3ncnc(N4CCOCC4)c23)c1
% of inhibition [9]: 3%
% of control [10]: 69%

Cc1cc(-c2ccnc(Nc3cnn(C)c3)n2)ccc1CNC(=O)N1CC(OC(C)C)C1
% of control [11]: 22%
